# Test results from patent publication US20260069588A1, “VEPDEGESTRANT FOR USE IN TREATING CANCER” (Arvinas Operation, Inc., priority 2022, published 2026).
# Test: Phase 1 single agent studies in Japanese and Chinese participants (C4891016, C4891018): adverse events
# [1] = TEAE treatment related, 200 mg, N = 15
# Description: TEAE's from participants in both studies have been combined and are described below.
smiles,measurement,setting,value
"O=C1CC[C@H](N2Cc3cc(N4CCN(CC5CCN(c6ccc([C@@H]7c8ccc(O)cc8CC[C@@H]7c7ccccc7)cc6)CC5)CC4)ccc3C2=O)C(=O)N1 [Compound A, (S)-3-(5-(4-((1-(4-((1R,2S)-6-hydroxy-2-phenyl-1,2,3,4-tetrahydronaphthalen-1-yl)phenyl)piperidin-4-yl)methyl)piperazin-1-yl)-1-oxoisoindolin-2-yl)piperidine-2,6-dione]",participants with a TRAE,200 mg,11 of 15 participants
same,participants with a TEAE,"200 mg, 15 evaluable",73.3%
same,participants with grade 3-4 TEAE,"200 mg, 15 evaluable",33.4%
same,TEAE Alanine aminotransferase increased,"200 mg, N=15",26.7%
same,TEAE anemia,"200 mg, N=15",40.0%
same,TEAE electrocardiogram QT prolonged,"200 mg, N=15",33.3%
same,"TEAEs constipation, hyperuricemia, hypokalaemia, neutrophil count decreased, each","200 mg, N=15",20.0%
same,"TRAEs alanine aminotransferase increased and electrocardiogram QT prolonged, each","200 mg, N=15",20.0%
same,"TRAEs aspartate aminotransferase increased, constipation, hyperuricemia, neutrophil count decreased, each","200 mg, N=15",13.3%
same,SAEs,"3 participants, 6 Jun 2023",3 SAEs
same,"Abdominal discomfort, Grade 1",[1],1 (6.7) n (%)
same,"Abdominal discomfort, Grade 2",[1],0 n (%)
same,"Abdominal discomfort, Grade 3",[1],0 n (%)
same,"Abdominal discomfort, Grade 4",[1],0 n (%)
same,"Abdominal discomfort, Grade 5",[1],0 n (%)
same,"Abdominal discomfort, Missing or Unknown",[1],0 n (%)
same,"Abdominal discomfort, Total",[1],1 (6.7) n (%)
same,"Alanine aminotransferase increased, Grade 1",[1],3 (20.0) n (%)
same,"Alanine aminotransferase increased, Grade 2",[1],0 n (%)
same,"Alanine aminotransferase increased, Grade 3",[1],0 n (%)
same,"Alanine aminotransferase increased, Grade 4",[1],0 n (%)
same,"Alanine aminotransferase increased, Grade 5",[1],0 n (%)
same,"Alanine aminotransferase increased, Missing or Unknown",[1],0 n (%)
same,"Alanine aminotransferase increased, Total",[1],3 (20.0) n (%)
same,"Alopecia, Grade 1",[1],1 (6.7) n (%)
same,"Alopecia, Grade 2",[1],0 n (%)
same,"Alopecia, Grade 3",[1],0 n (%)
same,"Alopecia, Grade 4",[1],0 n (%)
same,"Alopecia, Grade 5",[1],0 n (%)
same,"Alopecia, Missing or Unknown",[1],0 n (%)
same,"Alopecia, Total",[1],1 (6.7) n (%)
same,"Anemia, Grade 1",[1],0 n (%)
same,"Anemia, Grade 2",[1],1 (6.7) n (%)
same,"Anemia, Grade 3",[1],0 n (%)
same,"Anemia, Grade 4",[1],0 n (%)
same,"Anemia, Grade 5",[1],0 n (%)
same,"Anemia, Missing or Unknown",[1],0 n (%)
same,"Anemia, Total",[1],1 (6.7) n (%)
same,"Arthralgia, Grade 1",[1],1 (6.7) n (%)
same,"Arthralgia, Grade 2",[1],0 n (%)
same,"Arthralgia, Grade 3",[1],0 n (%)
same,"Arthralgia, Grade 4",[1],0 n (%)
same,"Arthralgia, Grade 5",[1],0 n (%)
same,"Arthralgia, Missing or Unknown",[1],0 n (%)
same,"Arthralgia, Total",[1],1 (6.7) n (%)
same,"Aspartate aminotransferase increased, Grade 1",[1],2 (13.3) n (%)
same,"Aspartate aminotransferase increased, Grade 2",[1],0 n (%)
same,"Aspartate aminotransferase increased, Grade 3",[1],0 n (%)
same,"Aspartate aminotransferase increased, Grade 4",[1],0 n (%)
same,"Aspartate aminotransferase increased, Grade 5",[1],0 n (%)
same,"Aspartate aminotransferase increased, Missing or Unknown",[1],0 n (%)
same,"Aspartate aminotransferase increased, Total",[1],2 (13.3) n (%)
same,"Bilirubin conjugated increased, Grade 1",[1],0 n (%)
same,"Bilirubin conjugated increased, Grade 2",[1],1 (6.7) n (%)
same,"Bilirubin conjugated increased, Grade 3",[1],0 n (%)
same,"Bilirubin conjugated increased, Grade 4",[1],0 n (%)
same,"Bilirubin conjugated increased, Grade 5",[1],0 n (%)
same,"Bilirubin conjugated increased, Missing or Unknown",[1],0 n (%)
same,"Bilirubin conjugated increased, Total",[1],1 (6.7) n (%)
same,"Blood and lymphatic system disorders, Grade 1",[1],0 n (%)
same,"Blood and lymphatic system disorders, Grade 2",[1],1 (6.7) n (%)
same,"Blood and lymphatic system disorders, Grade 3",[1],0 n (%)
same,"Blood and lymphatic system disorders, Grade 4",[1],0 n (%)
same,"Blood and lymphatic system disorders, Grade 5",[1],0 n (%)
same,"Blood and lymphatic system disorders, Missing or Unknown",[1],0 n (%)
same,"Blood and lymphatic system disorders, Total",[1],1 (6.7) n (%)
same,"Blood bilirubin increased, Grade 1",[1],0 n (%)
same,"Blood bilirubin increased, Grade 2",[1],1 (6.7) n (%)
same,"Blood bilirubin increased, Grade 3",[1],0 n (%)
same,"Blood bilirubin increased, Grade 4",[1],0 n (%)
same,"Blood bilirubin increased, Grade 5",[1],0 n (%)
same,"Blood bilirubin increased, Missing or Unknown",[1],0 n (%)
same,"Blood bilirubin increased, Total",[1],1 (6.7) n (%)
same,"Blood bilirubin unconjugated increased, Grade 1",[1],1 (6.7) n (%)
same,"Blood bilirubin unconjugated increased, Grade 2",[1],0 n (%)
same,"Blood bilirubin unconjugated increased, Grade 3",[1],0 n (%)
same,"Blood bilirubin unconjugated increased, Grade 4",[1],0 n (%)
same,"Blood bilirubin unconjugated increased, Grade 5",[1],0 n (%)
same,"Blood bilirubin unconjugated increased, Missing or Unknown",[1],0 n (%)
same,"Blood bilirubin unconjugated increased, Total",[1],1 (6.7) n (%)
same,"Cardiac disorders, Grade 1",[1],1 (6.7) n (%)
same,"Cardiac disorders, Grade 2",[1],0 n (%)
same,"Cardiac disorders, Grade 3",[1],0 n (%)
same,"Cardiac disorders, Grade 4",[1],0 n (%)
same,"Cardiac disorders, Grade 5",[1],0 n (%)
same,"Cardiac disorders, Missing or Unknown",[1],0 n (%)
same,"Cardiac disorders, Total",[1],1 (6.7) n (%)
same,"Constipation, Grade 1",[1],2 (13.3) n (%)
same,"Constipation, Grade 2",[1],0 n (%)
same,"Constipation, Grade 3",[1],0 n (%)
same,"Constipation, Grade 4",[1],0 n (%)
same,"Constipation, Grade 5",[1],0 n (%)
same,"Constipation, Missing or Unknown",[1],0 n (%)
same,"Constipation, Total",[1],2 (13.3) n (%)
same,"Decreased appetite, Grade 1",[1],1 (6.7) n (%)
same,"Decreased appetite, Grade 2",[1],0 n (%)
same,"Decreased appetite, Grade 3",[1],0 n (%)
same,"Decreased appetite, Grade 4",[1],0 n (%)
same,"Decreased appetite, Grade 5",[1],0 n (%)
same,"Decreased appetite, Missing or Unknown",[1],0 n (%)
same,"Decreased appetite, Total",[1],1 (6.7) n (%)
same,"Dizziness, Grade 1",[1],1 (6.7) n (%)
same,"Dizziness, Grade 2",[1],0 n (%)
same,"Dizziness, Grade 3",[1],0 n (%)
same,"Dizziness, Grade 4",[1],0 n (%)
same,"Dizziness, Grade 5",[1],0 n (%)
same,"Dizziness, Missing or Unknown",[1],0 n (%)
same,"Dizziness, Total",[1],1 (6.7) n (%)
same,"Electrocardiogram QT prolonged, Grade 1",[1],2 (13.3) n (%)
same,"Electrocardiogram QT prolonged, Grade 2",[1],0 n (%)
same,"Electrocardiogram QT prolonged, Grade 3",[1],1 (6.7) n (%)
same,"Electrocardiogram QT prolonged, Grade 4",[1],0 n (%)
same,"Electrocardiogram QT prolonged, Grade 5",[1],0 n (%)
same,"Electrocardiogram QT prolonged, Missing or Unknown",[1],0 n (%)
same,"Electrocardiogram QT prolonged, Total",[1],3 (20.0) n (%)
same,"Fatigue, Grade 1",[1],1 (6.7) n (%)
same,"Fatigue, Grade 2",[1],0 n (%)
same,"Fatigue, Grade 3",[1],0 n (%)
same,"Fatigue, Grade 4",[1],0 n (%)
same,"Fatigue, Grade 5",[1],0 n (%)
same,"Fatigue, Missing or Unknown",[1],0 n (%)
same,"Fatigue, Total",[1],1 (6.7) n (%)
same,"Gamma-glutamyl transferase increased, Grade 1",[1],1 (6.7) n (%)
same,"Gamma-glutamyl transferase increased, Grade 2",[1],0 n (%)
same,"Gamma-glutamyl transferase increased, Grade 3",[1],0 n (%)
same,"Gamma-glutamyl transferase increased, Grade 4",[1],0 n (%)
same,"Gamma-glutamyl transferase increased, Grade 5",[1],0 n (%)
same,"Gamma-glutamyl transferase increased, Missing or Unknown",[1],0 n (%)
same,"Gamma-glutamyl transferase increased, Total",[1],1 (6.7) n (%)
same,"Gastrointestinal disorders, Grade 1",[1],4 (26.7) n (%)
same,"Gastrointestinal disorders, Grade 2",[1],0 n (%)
